Values of other authors in patent publication US20250339568A1, “PRECURSOR AND RADIOTRACER FOR NEUROENDOCRINE THERANOSTICS” (ITM Oncologics GmbH, priority 2021, published 2025).

Biological target: T1, HEK293-SSR2 tumour cells (Homo sapiens, UniProt P30874)
T1 construct: host or cells: HEK293-SSR2 tumour cells
Conditions: reference example of EP 2 801 582 A1, Table 12

T1 sequence (P30874 whole entry): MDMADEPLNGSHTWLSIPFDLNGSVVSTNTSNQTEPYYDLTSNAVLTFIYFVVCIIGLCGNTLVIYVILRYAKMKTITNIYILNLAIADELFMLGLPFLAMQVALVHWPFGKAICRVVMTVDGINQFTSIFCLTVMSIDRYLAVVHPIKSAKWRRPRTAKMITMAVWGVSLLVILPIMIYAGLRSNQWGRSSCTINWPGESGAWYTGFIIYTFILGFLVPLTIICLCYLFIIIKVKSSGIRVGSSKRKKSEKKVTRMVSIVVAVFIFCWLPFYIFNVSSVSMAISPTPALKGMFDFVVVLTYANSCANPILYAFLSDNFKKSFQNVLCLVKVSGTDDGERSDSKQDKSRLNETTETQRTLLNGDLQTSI

For “DOTA-Cpa-cyclo[DCys-Pal-DAph(Cbm)-Lys-Thr-Cys]DTyr-NH2”, the “uptake in HEK293-SSR2 tumour cells” value is given as “without quantifiable uptake”.
